Assay results: patent publication US7211269B2, “Cosmetic or dermatological use of peptides for promoting adhesion between skin cells” (Societe d' Extraction de Principes Actifs S.A., priority 2001, dated 2007)
Where no end group is shown, it is not given here.

How the values were obtained:
[1] = Stability of the peptide by HPLC at various temperatures; format: physicochemical; details: 10^-4 M
Protocol: (§1) The Peptide (Gly-Pro-Gln)2-NH2 (SEQ ID NO: 2) was analyzed with a concentration of 10^-4 M by HPLC on a column of the C18 type, and with a linear gradient water/TFA 0.1%—acetonitril/TFA 0.1%.

[2] = system: keratinocytes; assay: Adhesion of keratinocytes to pre-treated 96 wells micro-plates (MTT, OD reading); format: cell-based
Protocol: The study is carried out in 96 wells micro-plates on keratinocytes cultured in an incubator at 37° C. and 5% of CO2. The wells of these plates are pre-treated, for 12 hours, in different ways; four conditions have been realized: • Condition A: negative control, not containing peptide; • Condition B: incubated with various peptides, made up from 3 to 25 amino acids, with a concentration of 35 ppm; • Condition C: incubated with collagen of the type I with a concentration of 60 ppm; • Condition D: incubated with the peptide of sequence (Gly-Pro-Gln)2-NH2 (SEQ ID NO: 2) to a concentration of 5 ppm.
After 3 hours of contact with the keratinocytes, the wells are completely filled with medium, hermetically closed, turned over and agitated on a three-dimensional agitator during 20 minutes. Then the plates are emptied and the remaining medium is aspired. Then, 100 μl of MTT with 1 mg/ml are added by wells and are left for 3 hours at 37° C. and 5% CO2. The solution is finally withdrawn, then 100 μl of DMSO is added. A reading of the OD is made at 560 nm against 630 nm.
The OD is proportional to the quantity of viable cells, i.e. which adhered to the micro-plates.

[3] = system: fibroblasts and keratinocytes in culture; assay: Peptide applied to fibroblasts and keratinocytes in culture, HPLC analysis of the culture medium; format: cell-based, human
Protocol: (§2) Human fibroblasts and keratinocytes were cultivated during 24 hours at 37° C. and 5% of CO2. For this period, the cells will release many degradation enzymes in the culture medium. Thereafter, the culture medium is removed to be put in the presence of the peptide.
A test is carried out by applying the peptide to the fibroblasts and to the keratinocytes in culture.
This assumption is then consolidated by the tests of effectiveness exposed in the […]

[4] = Stability of the peptide in culture medium removed from human fibroblasts and keratinocytes (released degradation enzymes), HPLC; format: in vitro ADME; details: medium from human fibroblasts and keratinocytes cultivated 24 hours at 37° C.; after 24 hours with peptide
Protocol: as §1, §2

For GPQGPQ-NH2 [(Gly-Pro-Gln)2-NH2], which “decomposition of peptide (HPLC)” value ([1]; after 24 hours at 25° C., 37° C. and 60° C.) is on record?
The value was “no decomposition”.

What about the “peptide degradation (HPLC)” value ([1]; after 8 days at 25° C.) of the same substance?
Its value is “no peptide degradation”.

And the “cell adhesion (in words)” value ([2]; 5 ppm, after 3 hours of contact with the keratinocytes, compared with collagen of the type I at 60 ppm)?
Its value is “good cell adhesion, similar to that of the collagen of the type I”.

What about the “O.D. (proportional to quantity of viable adhered cells)” value ([2]; Condition D: wells pre-treated 12 hours with 5 ppm, 3 hours of contact with keratinocytes, OD 560 nm against 630 nm) of the same substance?
Its value is 0.620.

And the “peptide concentration in the culture medium” value [3]?
Its value is “decreases quickly”.

What about the “degradation of the peptide in cell-conditioned culture medium” value [4] of the same substance?
Its value is “almost no degradation”.
